For this data set the following is noted: Crystal; thermal analyzer.

Molecules are shown by their SMILES. ± gives the expanded uncertainty stated by the source.

For `Oc1ccc(/C=C/c2cc(O)cc(O)c2)cc1` [5-[(1E)-2-(4-hydroxyphenyl)-ethenyl]-1,3-benzenediol], the Normal melting temperature was 268.1 ± 1 °C.

Source of the values: the NIST ThermoML archive (doi:10.1016/j.jct.2007.10.006).
